Here are results for 4 compounds from patent US20130274212A1, “Sesterterpene Compounds and Use Thereof” (SNU R&DB FOUNDATION, priority 2010, published 2013).

As usually defined, the EC50 is the midpoint of the concentration-response curve. A low value points to greater potency. One may read the IC50 as the concentration that inhibits the measured activity by half. A low value points to higher potency.

One assay deals with Nurr1 (Mus musculus, UniProt Q06219). The assay is described as follows: GAL-mNurr1 luciferase reporter transfection assay in CV-1 cells. The assay is classed as cell-based. As to conditions: GAL-mNurr1, luciferase corrected by β-galactosidase, 24 hours. The method, then: (§1) Animal cell line CV-1 was used in transfection search. Cells were cultured in DMEM medium within a cell incubator containing 5% carbon dioxide at 37° C. The medium contained 10% fetal bovine serum (FBS), 100 U/ml penicillin, and 100 μg/ml streptomycin. On day 1 of the experiment, CV1 cells were seeded in a 96-well plate at 5,000 cells/well. On day 2, the seeded cells were transfected with plasmid expressing GAL-mNurr1, plasmid expressing luciferase gene, and plasmid expressing β-galactosidase by using a transfection reagent, Superfect (QIAGEN). After 16 hours, the transfected cells were treated with compounds of Chemical Formula I dissolved in dimethylsulfoxide (DMSO) by the concentrations. Cells treated with dimethylsulfoxide having the final concentration of 1% were used as a negative control group. After culturing for 24 hours, the cells were lysed by using a lysis buffer, and luciferin was added thereto to measure the luciferase activity by a luminometer. After addition of an ONPG reagent, β-galactosidase activity was measured by an ELISA reader. The measured luciferase value was corrected by the activity value of β-galactosidase. […] Accordingly, it was verified that the compounds of Chemical Formula I were compounds selective to Nurr1.

In the next assay the test system is LXR. The assay is described as follows: GAL-hLXRa or GAL-hLXRB luciferase reporter antagonist assay in CV-1 cells. The assay is classed as cell-based, human. To be noted: LXR agonist T0901517 500 nM. The method, then:
as §1, with “expressing GAL-hLXRa or GAL-hLXRB,” for “expressing GAL-mNurr1,”, “expressing β-galactosidase,” for “expressing β-galactosidase”, “the concentrations (here, the final concentration of the LXR agonist, T0901517, was 500 nM).” for “the concentrations.”, “I are antagonist” for “I were”, “to LXR.” for “to Nurr1.”
A general note: A reporter such as luciferase makes a cellular process visible.

Assay [1] relates to BKS.Cg-+Lepr^db/+Lepr^db (db/db) mice. The assay is described as follows: Anti-diabetic efficacy in db/db mice (blood sugar, insulin, adiponectin, glucose and insulin tolerance). The assay is classed as in vivo, mouse. The method, then: In the present example, in order to verify efficacy to prevent and treat diabetes of the compound of Chemical Formula I (CMDD-X or Compound 7) according to the present invention, BKS.Cg-+Lepr^db/+Lepr^db (db/db) mice as an insulin-independent diabetes animal model and general mice (C57BL/6J) fed with high-fat feedstuff were used. After the disease animal model was orally administered with CMDD-X, the diabetes-related index between the administered group and the control group was measured to verify the efficacy as an agent for preventing and treating diabetes. BKS.Cg-+Lepr^db/+Lepr^db (db/db) mice (male, 7-week old) as type 2 diabetes animal model were purchased and used. The experiment animals were adapted to a housing environment for 1 week while pellet type general diet (lab-chow) was supplied, and then divided into 2 groups of 18 mice each by randomized block design to have similar blood sugar and body weight. For general mice fed with high-fat feedstuff as another animal model, 6-week old C57BL/6J mice was purchased, and then were adapted to a lap environment for 2 weeks. After that, high-fat diet containing 35% fat diet (weight ratio, Research Diets. Co. Ltd.) was supplied for 14 weeks. The efficacy to prevent and treat diabetes by CMDD-X was observed through oral administration. A mouse fed with only 0.5% carboxylmethyl cellulose, as a medicine delivery, was used as a negative control group. The medicine was orally administered to the db/db mice for 4 weeks, a total of 28 days, and to the C57BL/6J mice, which was fed with the high-fat diet, for the last 6 weeks, at a dose of 10 mg/kg/day. The experiment animals after administration were fasted for 15 hours before autopsy, and then the blood taken from the orbital venous treated with heparin. […] The other organ tissues were rapidly cooled in the liquid nitrogen immediately after removal thereof, and kept at −70° C. and then analyzed. T-test was conducted with respect to the control group and the administered group, a significant difference of less than 5% (P<0.05) was determined as having have a statistical significance.
In order to measure the blood sugar reduction efficacy of the compound of Chemical Formula I (CMDD-X or Compound 7), the blood was collected through tail veins of the db/db mice before experiment ending, after feeding, and after stomach was empty for 15 hours, and the blood sugar was measured by using a glucose oxidase method. […]
The insulin and adiponectin concentrations of the plasma, obtained from the orbital venous of the db/db mice orally administered with CMDD-X (or Compound 7) for 4 weeks, were measured by using an Elisa Kit. […]

Assay [2] has as its system Gyk, LXR, SREBP1c, SCD1, PPARa, UCP gene expression. The assay is described as follows: Gene expression analysis (micro-array, Q-RT PCR) in diabetic mice fed with compound. Format: in vivo, mouse. The method, then: Gene expression analysis was conducted to establish the mechanism. The gene analysis was conducted by using micro-array and the Q-RT PCR method. […] Expressions of PPARa and UCP, which are genes for burning the newly generated fat to release heat, were increased (FIG. 13).

A further assay deals with db/db mice. Description: Renal failure as diabetes complication: blood urea nitrogen in db/db mice. The assay is classed as in vivo, mouse. As to conditions: oral 10 mg/kg/day, 4 weeks. The method, then: In order to verify the efficacy to treat renal failure as a diabetes complication, a db/db disease animal model was used. 8-week old db/db mice were orally administered with the compound of Chemical Formula I (CMDD-X or Compound 7) at a dose of 10 mg/kg/day for 4 weeks, and then the blood urea nitrogen as a marker to treat renal failure was measured.

Assay [3] concerns C57BL/6 mice administered with MPTP. Description: MPTP-induced Parkinson's disease mice, Rotarod exercise capacity. The assay is classed as in vivo, mouse. As to conditions: oral 5 mg/kg once per day for 5 days before MPTP 25 mg/kg; measured after 3 days. An excerpt:
In the present example, in order to verify efficacy to prevent and treat Parkinson's Disease of the compound of Chemical Formula I according to the present invention in the Parkinson's Disease as one of neurodegenerative diseases, mice administered with 1-methyl-4-phenyl-1,2,3,6-tetrahydropyridine (MPTP) were used. The efficacy to prevent and treat the Parkinson's Disease was verified by administering the compound of Chemical Formula I (CMDD-X or Compound 7) to a Parkinson's Disease-induced disease model and then measuring exercise capacity of the mice. C57BL/6 mice (male, 12-week old) were used. The mice were adapted to a housing environment for 1 week while pellet type general diet was supplied, and then divided into 3 groups of 5 mice each to have similar body weights. Before MPTP administration, the compound CMDD-X was orally administered at a concentration of 5 mg/kg. After 3 hours, probenecid as MPTP efflux inhibitor was intraperitoneally administered to the mice at a concentration of 250 mg/kg, and, after 2 hours, 25 mg/kg of MPTP was intraperitoneally administered. Administration was conducted once per one day for a total of 5 days, and, after 3 days, exercise capacity of the mice was measured by using the Rotarod. […]
In general terms: The rotarod test checks motor coordination on a turning rod.

Sequence of Nurr1 (Q06219 360-598 limits assumed): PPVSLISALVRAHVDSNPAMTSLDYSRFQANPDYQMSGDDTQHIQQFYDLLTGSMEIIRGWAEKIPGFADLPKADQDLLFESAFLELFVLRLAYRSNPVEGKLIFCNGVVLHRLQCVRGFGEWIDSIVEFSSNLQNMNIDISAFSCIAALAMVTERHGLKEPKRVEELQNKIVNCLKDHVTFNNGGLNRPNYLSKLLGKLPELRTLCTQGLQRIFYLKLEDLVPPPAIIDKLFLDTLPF

`C#CCOCC1=C[C@]2(C=C(C)C[C@@H](/C=C(\C)CCC=C(C)C)O2)O[C@@H]2C=C(C)C(=O)C[C@H]12` [Compound 8]: on Nurr1, it took 25 nM to reach a half-maximal effect (EC50). For the same compound, in the assay with LXR, the IC50 came to 85 nM.
The compound `CC(C)=CCC/C(C)=C/[C@@H]1CC(C)=C[C@]2(C=C(CF)[C@H]3CC(=O)C(C)=C[C@H]3O2)O1` [Compound 7] returned an EC50 at Nurr1 of 32 nM. The concentration for half-maximal inhibition (IC50) in the assay with LXR was determined as 11 nM. For the same compound, the “insulin tolerance test: final blood sugar decreased as compared with the control group” value in assay [1] (insulin 3 unit/kg) turned out to be 58%. Besides, the “blood sugar after food intake, lower than that of the control group” value in assay [1] (oral 10 mg/kg/day, 4 weeks) is 27%. Moreover, the “blood sugar at the time of an empty stomach, reduction” value in assay [1] (oral 10 mg/kg/day, 4 weeks, fasted 15 hours) came out at 28%. The “blood insulin concentration, relative to that of the control group” value in assay [1] (oral 10 mg/kg/day, 4 weeks, plasma, Elisa Kit) was 73%. Moreover, in assay [2], the “expressions of LXR, SREBP1c, and SCD1” value is “very increased”. Besides, the “expression of Gyk (glycolysis biomarker), increase” value in assay [2] (micro-array and Q-RT PCR) was found to be 1.3 times. Also, the “efficacy on renal failure (blood urea nitrogen)” value in the assay with db/db mice is “somewhat superior efficacy as compared with CMDD-X”. In assay [3], the “exercise capacity (Rotarod)” value is “the same results as CMDD-X”.
On to `CC(C)=CCC/C(C)=C/[C@@H]1CC(C)=C[C@]2(C=C(COS(=O)(=O)c3ccc(C)cc3)[C@H]3CC(=O)C(C)=C[C@H]3O2)O1` [Compound 1], for which the EC50 on Nurr1 is 28 nM. In the assay on LXR, this compound returned an IC50 of 21 nM.
The compound `CC(C)=CCC/C(C)=C/[C@@H]1CC(C)=C[C@]2(C=C(C=O)[C@H]3CC(=O)C(C)=C[C@H]3O2)O1` [Compound 4] returned an EC50 at Nurr1 of 7 nM. Moreover, the 50% inhibitory concentration (IC50) in the assay with LXR came out at 5 nM.
